Experimental data: PubChem BioAssay (NCI)
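Each compound was tested at five concentrations against cells in 96-well plates for 48 hours. At the TGI there is no net growth.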

Columns and labels:
Test in all cases: NCI-60 cell line screen, 48 h
[1] = system: OVCAR-8 ovarian
[2] = system: MDA-N
[3] = system: HOP-62 NSCLC
[4] = system: BT-549 breast
[5] = system: NCI-H23 lung
[6] = system: HCC-2998 colon
[7] = system: SNB-19 CNS
[8] = system: OVCAR-4 ovarian
[9] = system: UACC-62 melanoma
[10] = system: SW-620 colon
[11] = system: KM12 colon
[12] = system: MALME-3M melanoma
[13] = system: T-47D breast
[14] = system: HL-60(TB) leukemia
[15] = system: HCT-116 colon
[16] = system: UO-31 renal
[17] = system: K-562 leukemia

| SMILES | TGI [1] [µM] | TGI [2] [µM] | TGI [3] [µM] | TGI [4] [µM] | TGI [5] [µM] | TGI [6] [µM] | TGI [7] [µM] | TGI [8] [µM] | TGI [9] [µM] | TGI [10] [µM] | TGI [11] [µM] | TGI [12] [µM] | TGI [13] [µM] | TGI [14] [µM] | TGI [15] [µM] | TGI [16] [µM] | TGI [17] [µM] |
| --- | --- | --- | --- | --- | --- | --- | --- | --- | --- | --- | --- | --- | --- | --- | --- | --- | --- |
| CCN(CC)CCCC(C)NC(=O)c1cc(-c2nccn2C)nc2ccc(C)cc12 (centres undefined) | > 100 | > 100 | > 100 | > 100 | > 100 | > 100 | > 100 | > 100 | > 100 | > 100 | > 100 | > 100 | > 100 | > 100 | > 100 | > 100 |  |
| Oc1ccc2ccccc2c1-c1c(Nc2ccccc2)ccc2ccccc12 | 33.8 | 20.5 | 30.1 | 30.1 | 30 | 29.2 | 37.4 | 25.4 | 33.6 | 26.8 | 37.3 | 25 | 39.5 | 48.4 | 33.5 | 29.2 | 41 |
| Cn1c(N(CCO)CCO)cnc1[N+](=O)[O-] | > 100 | > 100 | > 100 | > 100 | > 100 |  | > 100 | > 100 | > 100 | > 100 | > 100 | > 100 | > 100 | > 100 | > 100 | > 100 | > 100 |
| COc1ccc(/C=C/C(=O)c2nc3ccccc3[nH]2)cc1 | 51.1 | 32.9 | > 88.1 | 55.2 |  |  | 77.3 | 60.1 | 38.9 | 49.1 | 19.8 | 61.7 | 53.7 | > 29.7 | 18.6 | 34.6 | > 100 |
| Oc1ccc(-c2c3ccccc3c(-c3ccc(OCCBr)cc3)c3ccccc23)cc1 | 64 | 59.8 | 50.6 | 57.4 | 34.9 | > 100 | 84.3 | 58.3 | 42.1 | > 100 | 83.6 | 33.8 | > 100 | 70.1 | > 100 | > 100 | 97.4 |
| CSc1c(CC(=O)O)n(Cc2ccccc2)c2ccccc12 | > 100 | > 100 | > 100 | > 100 | > 100 |  | > 100 | > 100 | > 100 | > 100 | > 100 | > 100 | > 100 | > 100 | > 100 | > 100 | > 100 |
| C[C@@H]1CCC2[C@@H](C)[C@H](O[C@H]3O[C@@H]4O[C@@]5(C)CCC6[C@H](C)CCC([C@H]3C)[C@]64OO5)O[C@@H]3O[C@@]4(C)CCC1[C@@]23OO4 (some centres undefined) | 16.7 | 19.2 | 25.5 | 14.7 | 13.3 | 14.5 | 25.2 | 16.4 | 15.9 | 16.5 | 13.3 | 19.1 | 22.2 | 3.81 | 12.7 | 11 | > 100 |
| O=C1NCC2(CCN(Cc3ccccc3)CC2)N1 | > 100 | > 100 | > 100 | > 100 | > 100 | > 100 | > 100 | > 100 | > 100 | > 100 | > 100 | > 100 | > 100 | > 100 | > 100 | > 100 | > 100 |
| CC(=O)Nc1ccc2c3c(cc(O)c2c1)N(C(=O)CCCC(=O)Nc1ccc2c4c(cc(O)c2c1)N(C(=O)OC(C)(C)C)CC4CCl)CC3CCl (centres undefined) | > 50 | 3.34 | > 25.2 | 3.75 | 16.7 | 1.91 | > 15 | 6.4 | 2.31 | > 50 | 22.7 | 2.75 | 12.7 | 1.71 | > 50 | > 50 | > 31.4 |
| COc1ccc(C2=NN(C(=O)c3ccccc3)C(O)(c3cc(F)c(Cl)cc3Cl)C2)cc1OC (centres undefined) | > 100 | > 100 | 43 | > 100 | > 100 | > 100 | > 100 | 53.1 | > 100 | > 100 | > 100 | > 100 | > 100 | > 100 | > 100 | 89.4 | > 100 |
| COC(=O)c1cc(C)n2c1CS[C@@H]2c1ccccc1 | > 100 | > 100 | > 100 | 82.8 | > 100 |  | > 100 | > 100 |  | > 100 | > 100 | > 100 | 93.1 | > 100 | > 100 | > 100 | > 100 |
| OCCOCCN1CCN(c2nc(N3CCCC3)c3nc(Cl)c(NCc4ccccc4)nc3n2)CC1 | 32.2 | 22.7 | 26.7 | 29.1 | 31.4 | 15 | 29.8 | 30.8 | 27.3 | 44.6 | 26.8 | 29.9 | 30.6 | 29 | 26.4 | 21.7 | 16.4 |
| O=C(CC(=O)N(C(=O)c1ccccc1)c1ccc(Cl)cc1)N/N=C\c1ccccc1O | > 100 | > 100 | 89.2 | > 100 | > 100 | > 100 | > 100 | > 100 |  | > 100 | > 100 | > 100 | > 100 | > 100 | > 100 | > 100 | > 100 |
| CC(Oc1ccccc1)C(=O)NN (centres undefined) | > 100 | > 100 | > 100 | > 100 | > 100 | > 100 | > 100 | > 100 | > 100 | > 100 | > 100 | > 100 | > 100 | > 100 | > 100 | > 100 | > 100 |
| C/C(O)=C(/C=N\C(=S)Nc1ccc(Cl)c(Cl)c1)C(=O)Nc1ccccc1C | 66.3 | > 100 | > 100 | > 100 | 76.8 | > 100 | 84.2 | 76.5 | 49.8 | > 100 | > 100 |  | 45.7 | 60.1 | > 100 | > 100 |  |
| NC(=O)Cc1ncn(-c2ccccc2)n1 | > 100 | > 100 | > 100 | > 100 | > 100 |  | > 100 |  | > 100 | > 100 | > 100 | > 100 | > 100 | > 100 | > 100 | > 100 | > 100 |
| COc1ccc2c(C)cc(N/N=C/c3sccc3C)nc2c1 | 30.3 | 27.3 | 28.4 | 28.9 | 33.1 | 25.7 | 41.6 | > 100 | 34.9 | 69.4 | 21.8 | 20.8 | 33.6 | > 100 | 16.1 | 54.8 |  |
| OC(c1ccc(F)cc1)C(F)(F)c1nc(-c2ccccc2)no1 (centres undefined) | > 100 | 62.7 |  | 36.8 | 74.7 |  | 64.2 | 41.5 | 37.7 | 58.9 |  | 35 | 68.3 | 48.7 | 36.7 | 35.4 |  |
| CC1=NN(c2nc(N)nc(C(C)Sc3cc(Cl)c(C)cc3S(N)(=O)=O)n2)C(C)(C)C1 (centres undefined) | > 10 | > 10 | > 10 | > 10 | > 10 | > 10 | > 10 | > 10 |  | > 10 | > 10 | > 10 | > 10 | > 10 | > 10 | > 10 | > 10 |
| CC/C(Cl)=N\OC(=O)Nc1ccccc1OC(F)(F)F | 35.9 | 22.9 | 37.3 | 11.5 | 45.8 | 37.8 | 53.9 | 41.6 | 37.1 |  | 41.6 | 17.6 | 14.4 | 3.6 | 27 | 18.2 | 4.55 |
| CC1=NN(C(=O)CC(=O)Nc2ccccc2C)C(=O)C1N=Nc1ccc(S(=O)(=O)c2ccc(N=NC3C(=O)N(C(=O)CC(=O)Nc4ccccc4C)N=C3C)cc2)cc1 (centres undefined) | > 100 | > 100 | > 100 | > 100 | > 100 | > 100 | > 100 | > 100 | > 100 |  | > 100 | > 100 | > 100 | > 100 | > 100 | > 100 | > 100 |
| COc1cc(COC(=O)N2CCCCC2C(=O)O)c([N+](=O)[O-])cc1OC (centres undefined) | > 100 | > 100 | > 100 | > 100 | > 100 | > 100 | > 100 |  | > 100 | > 100 | > 100 | > 100 | > 100 | > 100 | > 100 | > 100 | > 100 |
| CC1CC(=O)N2CCCNC2=C1C#N (centres undefined) | > 100 | > 100 | > 100 | > 100 | > 100 | > 100 | > 100 | > 100 | > 100 | > 100 | > 100 | > 100 | > 100 |  | > 100 | > 100 | > 100 |
| Cc1[nH]c2ncn3ncnc3c2c1Cc1ccccc1 | > 100 | > 100 | > 100 | > 100 | > 100 | > 100 | > 100 | > 100 | > 100 | > 100 | > 100 | > 100 | > 100 | > 100 | > 100 | > 100 |  |
| COC(=O)c1ccccc1/C=C1\Cc2cc3c(cc2C1=O)CCC3 | > 100 | 78.8 | > 100 | > 100 | > 100 | > 100 | > 100 | > 100 | > 100 | > 100 | > 100 | > 100 | > 100 | > 100 | > 100 | > 100 |  |
| Cn1c(=O)nc2n(CCO)ccnc-2c1=O | > 100 | > 100 | > 100 | > 100 | > 100 | > 100 | > 100 | > 100 | > 100 | > 100 | > 100 | > 100 | > 100 |  | > 100 | > 100 | > 100 |
| C[C@H](CCC(=O)O[C@@H]1CC[C@@]2(C)C(CC[C@H]3[C@@H]4CC[C@H]([C@H](C)CCc5nc6ccccc6[nH]5)[C@@]4(C)CC[C@@H]32)C1)[C@H]1CC[C@H]2[C@@H]3CCC4C[C@H](O)CC[C@]4(C)[C@H]3CC[C@]12C (some centres undefined) | > 100 | > 100 | > 100 | > 100 | > 100 | > 100 | 61.2 | > 100 | > 100 | > 100 | > 100 |  | > 100 | > 100 | > 100 | > 100 | > 100 |
| O=C(Cn1c(C(=O)/C=C/c2ccco2)nc2ccccc21)c1ccc(Cl)cc1 |  | 50.2 | > 100 | 42.9 | 28.1 | 33.6 | > 100 | 65 | > 100 | > 100 | 47.1 | 40.2 | > 100 | 41 | 39.9 | 94.3 | 51 |
